According to patent US20240343681A1, “MOLECULES HAVING PESTICIDAL UTILITY AND INTERMEDIATES AND PROCESSES RELATED THERETO” (priority 2021, published 2024):

Columns and labels:
[1] = tested on: Beet Armyworm (Spodoptera exigua, LAPHEG) second instar larva; assay: Bioassay on beet armyworm (BAW), 128-well diet tray assay; assay type: in vivo; settings: 50 μg/cm^2 on artificial diet, 25° C., five days
In short: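 Test molecule in 90:10 acetone–water applied at 50 μg/cm^2 onto 1 mL artificial diet and dried; one second-instar larva per well, eight wells. Held 5 days at 25 °C, 14:10 light–dark; percent mortality averaged over the eight wells.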

[2] = tested on: Yellow Fever Mosquito (Aedes aegypti, AEDSAE) larvae; assay: Bioassay on yellow fever mosquito (YFM), 96-well plate larval assay; assay type: in vivo; settings: 4000 ppm (master plate solution), about 1 day-old larvae, 3 days
Protocol: Example B: Bioassays on Yellow Fever Mosquito (Aedes aegypti, AEDSAE) (“YFM”)
Master plates containing 400 μg of a molecule dissolved in 100 μL of dimethyl sulfoxide (DMSO) (equivalent to a 4000 ppm solution) are used. A master plate of assembled molecules contains 15 μL per well. To this plate, 135 μL of a 90:10 water/acetone mixture is added to each well. A robot (Biomek® NXP Laboratory Automation Workstation) is programmed to dispense 15 μL aspirations from the master plate into an empty 96-well shallow plate (“daughter” plate). There are 6 reps (“daughter” plates) created per master. The created “daughter” plates are then immediately infested with YFM larvae.
The day before plates are to be treated, mosquito eggs are placed in Millipore water containing liver powder to begin hatching (4 g into 400 mL). After the “daughter” plates are created using the robot, they are infested with 220 μL of the liver powder/larval mosquito mixture (about 1 day-old larvae). After plates are infested with mosquito larvae, a non-evaporative lid is used to cover the plate to reduce drying. Plates are held at room temperature for 3 days prior to grading. After 3 days, each well is observed and scored based on mortality.

SMILES | activity against BAW (percent mortality, averaged over eight wells) [1] | activity against YFM (scored based on mortality) [2]
O=C(Nc1cc(NC(=O)[C@H]2[C@H](c3ccc(F)c(C(F)(F)F)c3)C2(Cl)Cl)ccc1Cl)c1cnc(F)c(F)c1 [F109, N-(2-Chloro-5-((1R,3R)-2,2-dichloro-3-(4-fluoro-3-(trifluoromethyl)phenyl)cyclopropane-1-carboxamido)phenyl)-5,6-difluoronicotinamide] | exhibited activity | exhibited activity
Cc1cc(C#N)ccc1C(=O)Nc1cc(NC(=O)[C@H]2[C@H](c3cc(Cl)cc(Cl)c3)C2(Cl)Cl)ccc1F (racemic) [F60, trans-rac-4-Cyano-N-(5-(2,2-dichloro-3-(3,5-dichlorophenyl)cyclopropane-1-carboxamido)-2-fluorophenyl)-2-methylbenzamide] | exhibited activity | exhibited activity
Cc1c(C(=O)Nc2cc(NC(=O)[C@H]3[C@H](c4ccc(F)c(C(F)(F)F)c4)C3(Cl)Cl)ccc2Cl)ccc(NC(=O)CC(F)(F)F)c1F (racemic) [F114, trans-rac-N-(2-Chloro-5-(2,2-dichloro-3-(4-fluoro-3-(trifluoromethyl)phenyl)cyclopropane-1-carboxamido)phenyl)-3-fluoro-2-methyl-4-(3,3,3-trifluoropropanamido)benzamide] | exhibited activity | exhibited activity
O=C(Nc1cc(NC(=O)[C@H]2[C@H](c3cc(Cl)cc(Cl)c3)C2(Cl)Cl)ccc1Cl)c1ccc(C(F)(F)F)cc1 (racemic) [F82, trans-rac-N-(2-Chloro-5-(2,2-dichloro-3-(3,5-dichlorophenyl)cyclopropane-1-carboxamido)phenyl)-4-(trifluoromethyl)benzamide] | exhibited activity | exhibited activity
O=C(Nc1ccc(Cl)c(NC(=O)C(F)(F)Cl)c1)[C@H]1[C@H](c2cc(Cl)cc(Cl)c2)C1(Cl)Cl (racemic) [F54, trans-rac-2,2-Dichloro-N-(4-chloro-3-(2-chloro-2,2-difluoroacetamido)phenyl)-3-(3,5-dichlorophenyl)cyclopropane-1-carboxamide] | exhibited activity | exhibited activity
CCCC(=O)Nc1cccc(NC(=O)[C@H]2[C@H](c3cc(Cl)cc(Cl)c3)C2(Cl)Cl)c1F [F20, (1R,3R)—N-(3-Butyramido-2-fluorophenyl)-2,2-dichloro-3-(3,5-dichlorophenyl)cyclopropane-1-carboxamide] | exhibited activity | exhibited activity
N#Cc1ccc(C(=O)Nc2cc(NC(=O)[C@H]3[C@H](c4cc(Cl)cc(Cl)c4)C3(Cl)Cl)ccc2Cl)cc1 (racemic) [F70, trans-rac-N-(2-Chloro-5-(2,2-dichloro-3-(3,5-dichlorophenyl)cyclopropane-1-carboxamido)phenyl)-4-cyanobenzamide] | exhibited activity | exhibited activity
CCOC(C)C(=O)Nc1cc(NC(=O)C2C(c3cc(Cl)cc(Cl)c3)C2(Cl)Cl)ccc1Cl (racemic) [F40, trans-rac-2,2-dichloro-N-(4-chloro-3-(2-ethoxypropanamido)phenyl)-3-(3,5-dichlorophenyl)cyclopropane-1-carboxamide] | exhibited activity | exhibited activity
O=C(CN1CCOCC1)Nc1cc(NC(=O)[C@H]2[C@H](c3cc(Cl)cc(Cl)c3)C2(Cl)Cl)ccc1Cl (racemic) [F50, trans-rac-2,2-Dichloro-N-(4-chloro-3-(2-morpholinoacetamido)phenyl)-3-(3,5-dichlorophenyl)cyclopropane-1-carboxamide] | exhibited activity | exhibited activity
COCC(=O)Nc1ccc(C(=O)Nc2cc(NC(=O)[C@H]3[C@H](c4ccc(F)c(C(F)(F)F)c4)C3(Cl)Cl)ccc2Cl)c(F)c1 (racemic) [F118, trans-rac-N-(2-Chloro-5-(2,2-dichloro-3-(4-fluoro-3-(trifluoromethyl)phenyl)cyclopropane-1-carboxamido)phenyl)-2-fluoro-4-(2-methoxyacetamido)benzamide] | exhibited activity | exhibited activity
O=C(Nc1c(F)ccc(NC(=O)[C@H]2[C@H](c3cc(Cl)c(Cl)c(Cl)c3)C2(Cl)Cl)c1F)c1ccc(F)cc1F [F10, N-(3-((1R,3R)-2,2-dichloro-3-(3,4,5-trichlorophenyl)cyclopropane-1-carboxamido)-2,6-difluorophenyl)-2,4-difluorobenzamide] | exhibited activity | exhibited activity
O=C(CCC(F)(F)F)Nc1cc(NC(=O)[C@H]2[C@H](c3cc(Cl)cc(Cl)c3)C2(Cl)Cl)ccc1Cl (racemic) [F7, trans-rac-2,2-dichloro-N-(4-chloro-3-(4,4,4-trifluorobutanamido)phenyl)-3-(3,5-dichlorophenyl)cyclopropane-1-carboxamide] | exhibited activity | exhibited activity
O=C(Nc1c(F)ccc(NC(=O)[C@H]2[C@H](c3cc(Cl)c(Cl)c(Cl)c3)C2(Cl)Cl)c1F)C1CCCO1 (stereo partly drawn) [F11, N-(3-((1R,3R)-2,2-Dichloro-3-(3,4,5-trichlorophenyl)cyclopropane-1-carboxamido)-2,6-difluorophenyl)tetrahydrofuran-2-carboxamide] | exhibited activity | exhibited activity
Cc1cccc(C(=O)Nc2cc(NC(=O)[C@H]3[C@H](c4cc(Cl)cc(Cl)c4)C3(Cl)Cl)ccc2Cl)c1 (racemic) [F74, trans-rac-N-(2-Chloro-5-(2,2-dichloro-3-(3,5-dichlorophenyl)cyclopropane-1-carboxamido)phenyl)-3-methylbenzamide] | exhibited activity | exhibited activity
O=C(Nc1cc(NC(=O)[C@H]2[C@H](c3cc(Cl)cc(Cl)c3)C2(Cl)Cl)ccc1Cl)c1ccc(F)c(C(F)(F)F)c1 (racemic) [F83, trans-rac-N-(2-Chloro-5-(2,2-dichloro-3-(3,5-dichlorophenyl)cyclopropane-1-carboxamido)phenyl)-4-fluoro-3-(trifluoromethyl)benzamide] | exhibited activity | exhibited activity
COCC(=O)Nc1ccc(C(=O)Nc2cc(NC(=O)[C@H]3[C@H](c4ccc(F)c(C(F)(F)F)c4)C3(Cl)Cl)ccc2Cl)c(C)c1F (racemic) [F115, trans-rac-N-(2-Chloro-5-(2,2-dichloro-3-(4-fluoro-3-(trifluoromethyl)phenyl)cyclopropane-1-carboxamido)phenyl)-3-fluoro-4-(2-methoxyacetamido)-2-methylbenzamide] | exhibited activity | exhibited activity
Cc1c(C(=O)Nc2cc(NC(=O)[C@H]3[C@H](c4ccc(F)c(C(F)(F)F)c4)C3(Cl)Cl)ccc2Cl)ccc(NC(=O)COCC(F)(F)F)c1F (racemic) [F116, trans-rac-N-(2-Chloro-5-(2,2-dichloro-3-(4-fluoro-3-(trifluoromethyl)phenyl)cyclopropane-1-carboxamido)phenyl)-3-fluoro-2-methyl-4-(2-(2,2,2-trifluoroethoxy)acetamido)benzamide] | exhibited activity | exhibited activity
O=C(Nc1cc(NC(=O)[C@H]2[C@H](c3cc(Cl)cc(Cl)c3)C2(Cl)Cl)ccc1Cl)c1ncc(F)cc1F [F106, N-(2-Chloro-5-((1R,3R)-2,2-dichloro-3-(3,5-dichlorophenyl)cyclopropane-1-carboxamido)phenyl)-3,5-difluoropicolinamide] | exhibited activity | exhibited activity
COCC(=O)Nc1cccc(NC(=O)[C@H]2[C@H](c3cc(Cl)cc(Cl)c3)C2(Cl)Cl)c1 (racemic) [F4, trans-rac-2,2-Dichloro-3-(3,5-dichlorophenyl)-N-(3-(2-methoxyacetamido)phenyl)cyclopropane-1-carboxamide] | exhibited activity | exhibited activity
O=C(Nc1cccc(NC(=O)[C@H]2[C@H](c3cc(Cl)cc(Cl)c3)C2(Cl)Cl)c1F)c1ccc(F)cc1F [F16, N-(3-((1R,3R)-2,2-Dichloro-3-(3,5-dichlorophenyl)cyclopropane-1-carboxamido)-2-fluorophenyl)-2,4-difluorobenzamide] | exhibited activity | exhibited activity
